Earlier results as cited in PubChem BioAssay AID1259409 (Chemical Carcinogenesis Research Information System (CCRIS), 2018).

Test system: rodent chemically induced tumor inhibition, incidence and multiplicity
Test: CCRIS tumor inhibitor studies

**Q.** What does the source list for `C[C@]12CC[C@H](OS(=O)(=O)O)CC1=CC[C@@H]1[C@@H]2CC[C@]2(C)C(=O)CC[C@@H]12`?
**A.** tumour outcome (control, treated, inhibition, significance) (Carcinogen: 7,12-DIMETHYLBENZ[A]ANTHRACENE, 57-97-6, Dose [Inhibitor]: 0, 1 X 0.5 CM LONG SILASTIC IMPLANT 7 D PRIOR TO CARCINOGEN TREATMENT (STUDY DURATION: 111 D), Route [Inhibitor]: SUBCUTANEOUS IMPLANT, Species: RAT, Strain/Sex: SPRAGUE-DAWLEY/FEMALE, Target Tissue: Type of Lesion: MAMMARY GLAND: CARCINOMA, Dose [Carcinogen]: 20 MG IN 1 ML CORN OIL ADMINISTERED ON DAYS 50 TO 52 OF AGE, Promoter: NONE USED): 68%, 41%, 40%, not significant; tumour outcome (control, treated, inhibition, significance) (Carcinogen: 7,12-DIMETHYLBENZ[A]ANTHRACENE, 57-97-6, Dose [Inhibitor]: 0, 1 X 1 CM LONG SILASTIC IMPLANT 7 D PRIOR TO CARCINOGEN TREATMENT (STUDY DURATION: 111 D), Route [Inhibitor]: SUBCUTANEOUS IMPLANT, Species: RAT, Strain/Sex: SPRAGUE-DAWLEY/FEMALE, Target Tissue: Type of Lesion: MAMMARY GLAND: CARCINOMA, Dose [Carcinogen]: 20 MG IN 1 ML CORN OIL ADMINISTERED ON DAYS 50 TO 52 OF AGE, Promoter: NONE USED): 68%, 44%, 35%, not significant; tumour outcome (control, treated, inhibition, significance) (Carcinogen: 7,12-DIMETHYLBENZ[A]ANTHRACENE, 57-97-6, Dose [Inhibitor]: 0, 1 X 3 CM LONG SILASTIC IMPLANT 7 D PRIOR TO CARCINOGEN TREATMENT (STUDY DURATION: 111 D), Route [Inhibitor]: SUBCUTANEOUS IMPLANT, Species: RAT, Strain/Sex: SPRAGUE-DAWLEY/FEMALE, Target Tissue: Type of Lesion: MAMMARY GLAND: CARCINOMA, Dose [Carcinogen]: 20 MG IN 1 ML CORN OIL ADMINISTERED ON DAYS 50 TO 52 OF AGE, Promoter: NONE USED): 68%, 22%, 68%, p<0.01; tumour outcome (control, treated, inhibition, significance) (Carcinogen: 7,12-DIMETHYLBENZ[A]ANTHRACENE, 57-97-6, Dose [Inhibitor]: 0, 3 X 3 CM LONG SILASTIC IMPLANT 7 D PRIOR TO CARCINOGEN TREATMENT (STUDY DURATION: 111 D), Route [Inhibitor]: SUBCUTANEOUS IMPLANT, Species: RAT, Strain/Sex: SPRAGUE-DAWLEY/FEMALE, Target Tissue: Type of Lesion: MAMMARY GLAND: CARCINOMA, Dose [Carcinogen]: 20 MG IN 1 ML CORN OIL ADMINISTERED ON DAYS 50 TO 52 OF AGE, Promoter: NONE USED): 68%, 11%, 84%, p<0.01; tumour outcome (control, treated, inhibition, significance) (Carcinogen: 7,12-DIMETHYLBENZ[A]ANTHRACENE, 57-97-6, Dose [Inhibitor]: 0, 6 X 3 CM LONG SILASTIC IMPLANT 7 D PRIOR TO CARCINOGEN TREATMENT (STUDY DURATION: 111 D), Route [Inhibitor]: SUBCUTANEOUS IMPLANT, Species: RAT, Strain/Sex: SPRAGUE-DAWLEY/FEMALE, Target Tissue: Type of Lesion: MAMMARY GLAND: CARCINOMA, Dose [Carcinogen]: 20 MG IN 1 ML CORN OIL ADMINISTERED ON DAYS 50 TO 52 OF AGE, Promoter: NONE USED): 68%, 4%, 94%, p<0.01; tumour outcome (control, treated, inhibition, significance) (Carcinogen: N-NITROBIS(2-OXOPROPYL)AMINE, 60599-38-4, Dose [Inhibitor]: 0, 350 MG/KG ONCE ON DAY 1 OF STUDY (STUDY DURATION: 70 D), Route [Inhibitor]: INTRAPERITONEAL, Species: HAMSTER, Strain/Sex: SYRIAN/FEMALE, Target Tissue: Type of Lesion: PANCREAS: CARCINOMA, Dose [Carcinogen]: 70 MG/KG ONCE ON DAY 1 OF STUDY THEN ONCE ON DAYS 17 AND 32 OF STUDY, Promoter: ETHIONINE, 67-21-0, METHIONINE, 63-68-3, Promoter: ETHIONINE, 67-21-0, METHIONINE, 63-68-3): 8/15 (53%), 6/15 (40%), 25%, not significant; tumour outcome (control, treated, inhibition, significance) (Carcinogen: N-NITROSOBIS(2-OXOPROPYL)AMINE, 60599-38-4, Dose [Inhibitor]: 0, 175 MG/KG ONCE ON DAY 1 OF STUDY (STUDY DURATION: 70 D), Route [Inhibitor]: INTRAPERITONEAL, Species: HAMSTER, Strain/Sex: SYRIAN/FEMALE, Target Tissue: Type of Lesion: PANCREAS: CARCINOMA, Dose [Carcinogen]: 70 MG/KG ONCE ON DAY 1 OF STUDY THEN ONCE ON DAYS 17 AND 32 OF STUDY, Promoter: ETHIONINE, 67-21-0, METHIONINE, 63-68-3, Promoter: ETHIONINE, 67-21-0, METHIONINE, 63-68-3): 8/15 (53%), 9/16 (56%), -7%, not significant

**Q.** Which “tumour outcome (control, treated, inhibition, significance)” value (Carcinogen: 4-(METHYLNITROSAMINO)-1-(3-PYRIDYL)-1-BUTANONE, 64091-91-4, Dose [Inhibitor]: 0, 5 UMOL 1/D FOR 4 D ADMINISTERED PRIOR TO CARCINOGEN DOSE (STUDY DURATION: 116 D), Route [Inhibitor]: GAVAGE, Species: MOUSE, Strain/Sex: STRAIN-A, Target Tissue: Type of Lesion: LUNG: ADENOMA, Dose [Carcinogen]: 10 UMOL IN SALINE ADMINISTERED 2 HR POST LAST AGENT DOSE, Promoter: NONE USED) does the source give for `S=C=Nc1ccccc1` here?
**A.** The value was 100%, 100%, 0%.

**Q.** What about the “tumour outcome (control, treated, inhibition, significance)” value (Carcinogen: 4-(METHYLNITROSAMINO)-1-(3-PYRIDYL)-1-BUTANONE, 64091-91-4, Dose [Inhibitor]: 0, 5 UMOL 1/D FOR 4 D ADMINISTERED PRIOR TO CARCINOGEN TREATMENT (STUDY DURATION: 116 D), Route [Inhibitor]: GAVAGE, Species: MOUSE, Strain/Sex: STRAIN A, Target Tissue: Type of Lesion: LUNG: ADENOMA, Dose [Carcinogen]: 10 UMOL ONCE, 2 HR AFTER FINAL DOSE OF INHIBITOR, Promoter: NONE USED) of the same compound?
**A.** The value was 100%, 100%, 0%, not significant.

**Q.** And the “tumour outcome (control, treated, inhibition, significance)” value (Carcinogen: 4-(METHYLNITROSAMINO)-1-(3-PYRIDYL)-1-BUTANONE, 64091-91-4, Dose [Inhibitor]: 0, 5 UMOL/D FOR 4 CONSECUTIVE DAYS (STUDY DURATION: 17 WK), Route [Inhibitor]: GAVAGE, Species: MOUSE, Strain/Sex: STRAIN-A/FEMALE, Target Tissue: Type of Lesion: LUNG: ADENOMA, Dose [Carcinogen]: 10 UMOL ONCE 2 HR POST LAST AGENT DOSE, Promoter: NONE USED)?
**A.** Its value is 100%, 100%, 0%, not significant.

**Q.** What about the “tumour outcome (control, treated, inhibition, significance)” value (Carcinogen: 4-(METHYLNITROSAMINO)-1-(3-PYRIDYL)-1-BUTANONE, 64091-91-4, Dose [Inhibitor]: 5 UMOL/D FOR 4 CONSECUTIVE DAYS (STUDY DURATION: 16 WK), Route [Inhibitor]: GAVAGE, Species: MOUSE, Strain/Sex: STRAIN-A/FEMALE, Target Tissue: Type of Lesion: LUNG: ADENOMA, Dose [Carcinogen]: 10 UMOL ONCE 2 HR POST LAST AGENT DOSE, Promoter: NONE USED) of the same compound?
**A.** Its value is 30/30 (100%), 30/30 (100%), 0%.

**Q.** What about the “tumour outcome (control, treated, inhibition, significance)” value (Carcinogen: 4-(N-NITROSOMETHYLAMINO)-1-(3-PYRIDYL)-1-BUTANONE, 64091-91-4, Dose [Inhibitor]: 0, 5 UMOL/D FOR 4 CONSECUTIVE DAYS (STUDY DURATION: 16.5 WK), Route [Inhibitor]: GAVAGE, Species: MOUSE, Strain/Sex: STRAIN-A/FEMALE, Target Tissue: Type of Lesion: LUNG: ADENOMA, Dose [Carcinogen]: 10 UMOL ONCE 2 HR POST LAST AGENT DOSE, Promoter: NONE USED) of the same compound?
**A.** Its value is 100%, 100%, 0%, not significant.

**Q.** What about the “tumour outcome (control, treated, inhibition, significance)” value (Carcinogen: 7,12-DIMETHYLBENZ[A]ANTHRACENE, 57-97-6, Dose [Inhibitor]: 23 MG ONCE 4 HR PRIOR TO CARCINOGEN DOSE (STUDY DURATION: 18 WK), Route [Inhibitor]: INTRAGASTRIC, Species: RAT, Strain/Sex: SPRAGUE-DAWLEY/FEMALE, Target Tissue: Type of Lesion: MAMMARY GLAND: TUMOR, Dose [Carcinogen]: 12 MG IN 1 ML OLIVE OIL AT AGE 7 WK, Promoter: NONE USED) of the same compound?
**A.** The value was 86%, 46%, 46%, p<0.05.

**Q.** Which results are given for `N#C[Se]Cc1ccccc1`?
**A.** tumour outcome (control, treated, inhibition, significance) (Carcinogen: 7,12-DIMETHYLBENZ[A]ANTHRACENE, 57-97-6, Dose [Inhibitor]: 0, 1 PPM (AS SELENIUM) IN DIET BEGINNING 2 WK PRIOR TO CARCINOGEN DOSE AND CONTINUING FOR DURATION OF STUDY (STUDY DURAT, Route [Inhibitor]: ORAL, Species: RAT, Strain/Sex: SPRAGUE-DAWLEY/FEMALE, Target Tissue: Type of Lesion: MAMMARY GLAND: ADENOCARCINOMA, Dose [Carcinogen]: 10 MG ONCE AT 55 D OF AGE, Promoter: NONE USED): 88%, 56%, 36%, p<0.05; tumour outcome (control, treated, inhibition, significance) (Carcinogen: 7,12-DIMETHYLBENZ[A]ANTHRACENE, 57-97-6, Dose [Inhibitor]: 0, 2 PPM (AS SELENIUM) IN DIET BEGINNING 2 WK PRIOR TO CARCINOGEN DOSE AND CONTINUING FOR DURATION OF STUDY (STUDY DURAT, Route [Inhibitor]: ORAL, Species: RAT, Strain/Sex: SPRAGUE-DAWLEY/FEMALE, Target Tissue: Type of Lesion: MAMMARY GLAND: ADENOCARCINOMA, Dose [Carcinogen]: 10 MG ONCE AT 55 D OF AGE, Promoter: NONE USED): 88%, 40%, 55%, p<0.05; tumour outcome (control, treated, inhibition, significance) (Carcinogen: 7,12-DIMETHYLBENZ[A]ANTHRACENE, 57-97-6, Dose [Inhibitor]: 0, 3 PPM (AS SELENIUM) IN DIET BEGINNING 2 WK PRIOR TO CARCINOGEN DOSE AND CONTINUING FOR DURATION OF STUDY (STUDY DURAT, Route [Inhibitor]: ORAL, Species: RAT, Strain/Sex: SPRAGUE-DAWLEY/FEMALE, Target Tissue: Type of Lesion: MAMMARY GLAND: ADENOCARCINOMA, Dose [Carcinogen]: 10 MG ONCE AT 55 D OF AGE, Promoter: NONE USED): 88%, 40%, 55%, p<0.05; tumour outcome (control, treated, inhibition, significance) (Carcinogen: 7,12-DIMETHYLBENZ[A]ANTHRACENE, 57-97-6, Dose [Inhibitor]: 0, 25 PPM IN DIET BEGINNING 2 WK PRIOR TO CARCINOGEN DOSE AND CONTINUING FOR 1 WK POST CARCINOGEN DOSE (STUDY DURATION:, Route [Inhibitor]: ORAL, Species: RAT, Strain/Sex: SPRAGUE-DAWLEY/FEMALE, Target Tissue: Type of Lesion: MAMMARY GLAND: TUMOR, Dose [Carcinogen]: 10 MG IN 1 ML OLIVE OIL ONCE AT 7 WK OF AGE, Promoter: NONE USED): 19/21 (91%), 13/21 (62%), 32%, p<0.05; tumour outcome (control, treated, inhibition, significance) (Carcinogen: BENZO[A]PYRENE, 50-32-8, Dose [Inhibitor]: 0, 0.045 UMOL/G DIET BEGINNING 1 WK PRIOR TO CARCINOGEN TREATMENT AND CONTINUING FOR 1 WK POST CARCINOGEN TREATMENT FOLL, Route [Inhibitor]: ORAL, Species: MOUSE, Strain/Sex: CD-1/FEMALE, Target Tissue: Type of Lesion: FORESTOMACH: PAPILLOMA, Dose [Carcinogen]: 1 MG IN 0.2 ML CORN OIL 2/WK FOR 4 WK, Promoter: NONE USED): 85%, 79%, 7%, not significant
